In patent publication US9550754B2, “4,5-dihydropyrazole derivatives, pharmaceutical compositions containing them, and their use in therapy” (ABBVIE DEUTSCHLAND GMBH & CO. KG, priority 2014, dated 2017):

Target: T1, human GlyT1c transporter (Homo sapiens, UniProt P48067)
T1 construct: expressed in transfected cells; host or cells: recombinant CHO cells (membranes); the line hGlyT1c_5_CHO is named only for the uptake assay
T1 sequence (P48067 1-706): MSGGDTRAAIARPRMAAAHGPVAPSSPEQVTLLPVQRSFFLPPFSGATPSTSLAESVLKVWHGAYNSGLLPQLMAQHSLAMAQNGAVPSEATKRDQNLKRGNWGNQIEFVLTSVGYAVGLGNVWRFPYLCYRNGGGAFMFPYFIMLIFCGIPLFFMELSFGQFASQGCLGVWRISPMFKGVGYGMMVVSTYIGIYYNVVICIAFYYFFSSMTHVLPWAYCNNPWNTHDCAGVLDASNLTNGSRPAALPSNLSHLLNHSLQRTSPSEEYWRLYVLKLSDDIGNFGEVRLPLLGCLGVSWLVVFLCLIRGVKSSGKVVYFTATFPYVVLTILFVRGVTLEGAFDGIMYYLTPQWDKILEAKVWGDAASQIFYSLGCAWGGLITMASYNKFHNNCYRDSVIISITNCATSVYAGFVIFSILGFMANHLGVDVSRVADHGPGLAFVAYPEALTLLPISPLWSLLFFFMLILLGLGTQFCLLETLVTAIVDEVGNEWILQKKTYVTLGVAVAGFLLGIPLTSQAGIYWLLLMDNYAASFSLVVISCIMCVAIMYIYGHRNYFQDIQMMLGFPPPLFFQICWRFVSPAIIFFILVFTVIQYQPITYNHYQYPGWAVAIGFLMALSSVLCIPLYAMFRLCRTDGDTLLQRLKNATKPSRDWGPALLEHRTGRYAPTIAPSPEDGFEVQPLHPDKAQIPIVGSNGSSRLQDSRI
Assay: Radioligand binding assay using recombinant CHO cell membranes expressing human GlyT1
Conditions: apparent Ki, read-out: Kiapp (Inhibition of GlyT1 radioligand binding)
Description: 2. Radioligand Binding Assays Using Recombinant CHO Cell Membranes Expressing Human GlyT1:
Radioligand binding to human GlyT1c transporter-expressing membranes was carried out as described in Mezler et al., Molecular Pharmacology 74:1705-1715, 2008.

| SMILES | Ki [µM] |
| --- | --- |
| Cn1cc(S(=O)(=O)N2CC(c3ccc(F)cc3)C(c3ccccc3)=N2)cn1 (stereo not shown) [Example 9, 4-{[4-(4-fluorophenyl)-3-phenyl-4,5-dihydro-1H-pyrazol-1-yl]sulfonyl}-1-methyl-1H-pyrazole] | ≥ 10 |
| Cn1cnc(S(=O)(=O)N2CC(c3ccccc3)C(c3ccccn3)=N2)c1 (stereo not shown) [Example 18, 2-{1-[(1-methyl-1H-imidazol-4-yl)sulfonyl]-4-phenyl-4,5-dihydro-1H-pyrazol-3-yl}pyridine] | ≤ 10 |
| Cn1cnc(S(=O)(=O)N2CC(c3ccccc3)C(c3ccc(Cl)cc3)=N2)c1 (stereo not shown) [Example 2, 3-(4-chlorophenyl)-1-[(1-methyl-1H-imidazol-4-yl)sulfonyl]-4-phenyl-4,5-dihydro-1H-pyrazole] | ≤ 0.1 |
| Cn1cnc(S(=O)(=O)N2CC(c3ccc(Cl)cc3)C(c3ccccc3)=N2)c1 (stereo not shown) [Example 24, 4-(4-chlorophenyl)-1-[(1-methyl-1H-imidazol-4-yl)sulfonyl]-3-phenyl-4,5-dihydro-1H-pyrazole] | ≤ 1 |
| Cn1cc(S(=O)(=O)N2CC(c3ccc(F)cc3)C(c3cccc(Cl)c3)=N2)nn1 (stereo not shown) [Example 6, 4-{[3-(3-chlorophenyl)-4-(4-fluorophenyl)-4,5-dihydro-1H-pyrazol-1-yl]sulfonyl}-1-methyl-1H-1,2,3-triazole] | ≤ 0.1 |
| Cn1cc(S(=O)(=O)N2CC(c3ccc(F)cc3)C(c3cccc(Cl)c3)=N2)cn1 (stereo not shown) [Example 7, 4-{[3-(3-chlorophenyl)-4-(4-fluorophenyl)-4,5-dihydro-1H-pyrazol-1-yl]sulfonyl}-1-methyl-1H-pyrazole] | ≤ 0.01 |
| Cn1cnc(S(=O)(=O)N2CC(c3cccc(Cl)c3)C(c3ccccc3)=N2)c1 (stereo not shown) [Example 30, 4-(3-chlorophenyl)-1-[(1-methyl-1H-imidazol-4-yl)sulfonyl]-3-phenyl-4,5-dihydro-1H-pyrazole] | ≤ 0.1 |
| Cn1cnc(S(=O)(=O)N2CC(c3ccccc3)C(c3cc(C(F)(F)F)ccn3)=N2)c1 (stereo not shown) [Example 21, 2-{1-[(1-methyl-1H-imidazol-4-yl)sulfonyl]-4-phenyl-4,5-dihydro-1H-pyrazol-3-yl}-4-(trifluoromethyl)pyridine] | ≤ 10 |
| Cn1cc(S(=O)(=O)N2CC(c3ccccc3)C(c3ccccn3)=N2)nn1 (stereo not shown) [Example 20, 2-{1-[(1-methyl-1H-1,2,3-triazol-4-yl)sulfonyl]-4-phenyl-4,5-dihydro-1H-pyrazol-3-yl}pyridine] | ≤ 10 |
| Cn1cc(S(=O)(=O)N2CC(c3ccc(F)cc3)C(c3cccc(C(F)(F)F)c3)=N2)cn1 (stereo not shown) [Example 10, 4-({4-(4-fluorophenyl)-3-[3-(trifluoromethyl)phenyl]-4,5-dihydro-1H-pyrazol-1-yl}sulfonyl)-1-methyl-1H-pyrazole] | ≤ 10 |
| Cn1cc(S(=O)(=O)N2CC(c3cccc(Cl)c3)C(c3ccccc3)=N2)cn1 (stereo not shown) [Example 29, 4-{[4-(3-chlorophenyl)-3-phenyl-4,5-dihydro-1H-pyrazol-1-yl]sulfonyl}-1-methyl-1H-pyrazole] | ≤ 10 |
| Cn1cnc(S(=O)(=O)N2CC(c3ccc(F)cc3)C(c3cccc(Cl)c3)=N2)c1 (stereo not shown) [Example 5, 3-(3-chlorophenyl)-4-(4-fluorophenyl)-1-[(1-methyl-1H-imidazol-4-yl)sulfonyl]-4,5-dihydro-1H-pyrazole] | ≤ 1 |
| Cn1cnc(S(=O)(=O)N2CC(c3ccc(F)cc3)C(c3cccc(C(F)(F)F)c3)=N2)c1 (stereo not shown) [Example 8, 4-(4-fluorophenyl)-1-[(1-methyl-1H-imidazol-4-yl)sulfonyl]-3-[3-(trifluoromethyl)phenyl]-4,5-dihydro-1H-pyrazole] | ≤ 0.1 |
| Cn1cc(S(=O)(=O)N2CC(c3cccc(C#N)c3)C(c3ccccc3)=N2)nn1 (stereo not shown) [Example 28, 3-{1-[(1-methyl-1H-1,2,3-triazol-4-yl)sulfonyl]-3-phenyl-4,5-dihydro-1H-pyrazol-4-yl}benzonitrile] | ≤ 1 |
| Cn1cnc(S(=O)(=O)N2CC(c3ccccc3)C(c3ccc(Cl)cc3)=N2)c1 (single isomer, unassigned) [Example 16a, 3-(4-chlorophenyl)-1-[(1-methyl-1H-imidazol-4-yl)sulfonyl]-4-phenyl-4,5-dihydro-1H-pyrazole] | ≤ 0.01 |

More lines, now with the values ahead:

| Ki [µM] | SMILES |
| --- | --- |
| ≤ 10 | CC(C)CC1=NN(S(=O)(=O)c2cn(C)cn2)CC1c1ccccc1 (stereo not shown) [Example 17, 1-[(1-methyl-1H-imidazol-4-yl)sulfonyl]-3-(2-methylpropyl)-4-phenyl-4,5-dihydro-1H-pyrazole] |
| ≤ 0.1 | Cn1cc(S(=O)(=O)N2CC(c3ccc(F)cc3)C(c3ccccc3)=N2)nn1 (stereo not shown) [Example 3, 4-{[4-(4-fluorophenyl)-3-phenyl-4,5-dihydro-1H-pyrazol-1-yl]sulfonyl}-1-methyl-1H-1,2,3-triazole] |
| ≤ 10 | Cn1cnc(S(=O)(=O)N2CC(c3ccccc3)C(c3ccc(Cl)cc3)=N2)c1 (single isomer, unassigned) [Example 16b, 3-(4-chlorophenyl)-1-[(1-methyl-1H-imidazol-4-yl)sulfonyl]-4-phenyl-4,5-dihydro-1H-pyrazole] |
| ≤ 10 | Cn1cc(S(=O)(=O)N2CC(c3ccc(F)cc3)C(c3cccc(C(F)(F)F)c3)=N2)nn1 (stereo not shown) [Example 1, 4-({4-(4-fluorophenyl)-3-[3-(trifluoromethyl)phenyl]-4,5-dihydro-1H-pyrazol-1-yl}sulfonyl)-1-methyl-1H-1,2,3-triazole] |
| ≤ 10 | Cn1cc(S(=O)(=O)N2CC(c3ccccc3)C(c3cc(C(F)(F)F)ccn3)=N2)nn1 (stereo not shown) [Example 23, 2-{1-[(1-methyl-1H-1,2,3-triazol-4-yl)sulfonyl]-4-phenyl-4,5-dihydro-1H-pyrazol-3-yl}-4-(trifluoromethyl)pyridine] |
| ≥ 10 | Cn1cc(S(=O)(=O)N2CC(c3ccccc3)C(c3ccccn3)=N2)cn1 (stereo not shown) [Example 19, 2-{1-[(1-methyl-1H-pyrazol-4-yl)sulfonyl]-4-phenyl-4,5-dihydro-1H-pyrazol-3-yl}pyridine] |
| ≤ 10 | Cn1cc(S(=O)(=O)N2CC(c3ccccc3)C(c3cccc(OC(F)(F)F)c3)=N2)cn1 (stereo not shown) [Example 14, 1-methyl-4-({4-phenyl-3-[3-(trifluoromethoxy)phenyl]-4,5-dihydro-1H-pyrazol-1-yl}sulfonyl)-1H-pyrazole] |
| ≤ 10 | Cn1cc(S(=O)(=O)N2CC(c3ccc(Cl)cc3)C(c3ccccc3)=N2)cn1 (stereo not shown) [Example 26, 4-{[4-(4-chlorophenyl)-3-phenyl-4,5-dihydro-1H-pyrazol-1-yl]sulfonyl}-1-methyl-1H-pyrazole] |
| ≤ 10 | Cn1cnc(S(=O)(=O)N2CC(c3cccc(C#N)c3)C(c3ccccc3)=N2)c1 (stereo not shown) [Example 25, 3-{1-[(1-methyl-1H-imidazol-4-yl)sulfonyl]-3-phenyl-4,5-dihydro-1H-pyrazol-4-yl}benzonitrile] |
| ≤ 10 | Cn1cc(S(=O)(=O)N2CC(c3ccccc3)C(c3cc(C(F)(F)F)ccn3)=N2)cn1 (stereo not shown) [Example 22, 2-{1-[(1-methyl-1H-pyrazol-4-yl)sulfonyl]-4-phenyl-4,5-dihydro-1H-pyrazol-3-yl}-4-(trifluoromethyl)pyridine] |
| ≤ 1 | Cn1cnc(S(=O)(=O)N2CC(c3ccc(F)cc3)C(c3ccccc3)=N2)c1 (stereo not shown) [Example 4, 4-(4-fluorophenyl)-1-[(1-methyl-1H-imidazol-4-yl)sulfonyl]-3-phenyl-4,5-dihydro-1H-pyrazole] |
| ≤ 10 | Cn1cc(S(=O)(=O)N2CC(c3ccccc3)C(c3ccc(Cl)cc3)=N2)cn1 (stereo not shown) [Example 11, 4-{[3-(4-chlorophenyl)-4-phenyl-4,5-dihydro-1H-pyrazol-1-yl]sulfonyl}-1-methyl-1H-pyrazole] |
| ≤ 1 | Cn1cc(S(=O)(=O)N2CC(c3ccc(Cl)cc3)C(c3ccccc3)=N2)nn1 (stereo not shown) [Example 27, 4-{[4-(4-chlorophenyl)-3-phenyl-4,5-dihydro-1H-pyrazol-1-yl]sulfonyl}-1-methyl-1H-1,2,3-triazole] |
| ≤ 0.1 | Cn1cnc(S(=O)(=O)N2CC(c3ccccc3)C(c3cccc(OC(F)(F)F)c3)=N2)c1 (stereo not shown) [Example 13, 1-[(1-methyl-1H-imidazol-4-yl)sulfonyl]-4-phenyl-3-[3-(trifluoromethoxy)-phenyl]-4,5-dihydro-1H-pyrazole] |
| ≤ 0.01 | Cn1cc(S(=O)(=O)N2CC(c3ccccc3)C(c3ccc(Cl)cc3)=N2)nn1 (stereo not shown) [Example 12, 4-{[3-(4-chlorophenyl)-4-phenyl-4,5-dihydro-1H-pyrazol-1-yl]sulfonyl}-1-methyl-1H-1,2,3-triazole] |
| ≤ 0.1 | Cn1cc(S(=O)(=O)N2CC(c3ccccc3)C(c3cccc(OC(F)(F)F)c3)=N2)nn1 (stereo not shown) [Example 15, 1-methyl-4-({4-phenyl-3-[3-(trifluoromethoxy)phenyl]-4,5-dihydro-1H-pyrazol-1-yl}sulfonyl)-1H-1,2,3-triazole] |
